Data: patent US20260041640A1 (INCYCLIX BIO, LLC, priority 2023, published 2026)
Values joined by “and” are separate entries in the source; they are usually repeats but may differ in a detail not shown here. Identical values can stand only once. Like-named read-outs stand apart in the source and are kept apart here.

Assay: First-in-human clinical study: plasma and whole blood PK of INX-315 (oral QD, ASD tablet)
Type: in vivo
Parameters: AUC Plasma / AUC Whole Blood: unit not given here
Source text: All INX-315 tablets were taken at approximately the same time(s) each day.
Samples will also be collected pre-dose on Cycle 1 Days 2, 8, 16, and Day 22, and pre-dose on Day 1 of each subsequent cycle.
Standard non-compartmental PK parameters were estimated.
Geometric mean and geometric CV % will be included in the summary statistics.
PK parameters will be summarized descriptively by dosing cohort. AUC and Cmax values will also be presented in scatter plots. Dose proportionality will be assessed for AUC and Cmax using a power model. The 90% CI of the slope for each PK parameter will be estimated from the model and presented in a summary table.
Cohort 1 enrollment of 6 subjects dosed at 100 mg oral QD was completed in October of 2023.
Patients were upgraded to the 200 mg QD dose level and PK/PD plasma parameters were measured (FIG. 18A).
Patients were administered the 200 mg QD and 300 mg QD dose levels and PK/PD plasma parameters were measured.

[1] = Cohort 1 (100 mg QD), Day 1, individual subjects
[2] = Cohort 1 (100 mg QD), Day 15, individual subjects
[3] = Cohort 2 (200 mg QD), Day 1, individual subjects
[4] = Cohort 2 (200 mg QD), Day 15, individual subjects
[5] = Cohort 3 (300 mg QD), Day 1, individual subjects

In the case of `NS(=O)(=O)c1ccc(Nc2ncc3cc4n(c3n2)C2(CCCCC2)C(=O)NN4)cc1` [INX-315], the “Mean free plasma trough concentration” value (100 mg QD, C 1 D 1 (Day 1)) is reported as 2.98 (6) ng/mL and 2.98 ng/mL, the “Mean free plasma trough concentration” value (100 mg QD, C 1 D 7 (Day 7)) is reported as 5.7 (6) ng/mL and 5.71 ng/mL and the “Mean free plasma trough concentration” value (100 mg QD, C 1 D 14) is reported as 4.72 ng/mL. For the same compound, the “Mean free plasma trough concentration” value (100 mg QD, C 1 D 15) was 5.43 ng/mL, the “Mean free plasma trough concentration” value (100 mg QD, C 1 D 21) was 4.72 ng/mL and the “Mean free plasma trough concentration” value (100 mg QD, C 2 D 1) was 4.32 ng/mL. The “Mean free plasma trough concentration” value (100 mg QD, C 3 D 1) was 4.27 ng/mL, the “Mean free plasma trough concentration” value (100 mg QD, C 4 D 1) was 5.91 ng/mL and the “Mean free plasma trough concentration” value (200 mg QD, C 1 D 1 (Day 1)) was 7.3 (2) ng/mL and 7.31 ng/mL. The “Mean free plasma trough concentration” value (200 mg QD, C 1 D 7 (Day 7)) was 10.2 (2) ng/mL and 10.16 ng/mL, the “AUC Plasma” value [1] was 2532 and 1886 and 3391 and 2271 and 3370 and 640.8 and the “AUC Whole Blood” value [1] was 44857 and 38499 and 41732 and 33139 and 60740 and 13440. For the same compound, the “AUC Plasma” value [2] was 1276 and 5858 and 3444 and 6910 and 1951, the “AUC Whole Blood” value [2] was 37642 and 44316 and 118285 and 31754 and the “time to steady state trough concentrations” value (Cohort 1, 100 mg QD) was ≤ 7 days. The “AUC Plasma” value [3] was 4955 and 7528 and 11982 and 19801, the “AUC Whole Blood” value [3] was 132257 and 94340 and 131625 and the “AUC Plasma” value [4] was 6987 and 6286 and 18669 and 13618. For the same compound, the “AUC Whole Blood” value [4] was 94895 and 236613 and 183345 and 112733, the “AUC Plasma” value [5] was 12111 and 11382 and 8338 and 11173 and the “AUC Whole Blood” value [5] was 149733 and 88350 and 116734 and 106858. For the same compound, the half-life (human, plasma and whole blood, oral, 100 mg, preliminary data of the expanded cohort 1, 100 mg QD, read-out: t1/2 (converted)) was ≥ 12 h, the concentration at 0.5 h (human, plasma, oral, 100 mg, 100 mg QD (n = 6), 0.5 hr) was 18.9 ng/mL and the concentration at 1 h (human, plasma, oral, 100 mg, 100 mg QD (n = 6), 1.0 hr) was 71.4 ng/mL. It also gave a concentration at 2 h (human, plasma, oral, 100 mg, 100 mg QD (n = 6), 2.0 hr) of 158 ng/mL, a concentration at 6 h (human, plasma, oral, 100 mg, 100 mg QD (n = 6), 6.0 hr) of 132 ng/mL and a concentration at 8 h (human, plasma, oral, 100 mg, 100 mg QD (n = 6), 8.0 hr) of 121 ng/mL. For the same compound, the concentration at 24 h (human, plasma, oral, 100 mg, 100 mg QD (n = 6), […], read-out: Mean plasma concentration) was 57.4 ng/mL, the AUC (human, plasma, oral, 100 mg, plasma, 100 mg QD (n = 6), read-out: Total Area (AUC)) was 2400 ng·h/mL and the Cmax (human, plasma, oral, 100 mg, plasma, 100 mg QD, Day 1 (Example 10), read-out: Cmax) was 148 ng/mL. The AUC(0-t) (human, plasma, oral, 100 mg, plasma, 100 mg QD, Day 1, Cohort 1 (Table 27), read-out: AUClast, geometric mean) was 2640 ng·h/mL, the Cmax (human, plasma, oral, 100 mg, plasma, 100 mg QD, Day 1, Cohort 1 (Table 27), read-out: Cmax, geometric mean) was 193 ng/mL and the Tmax (human, plasma, oral, 100 mg, plasma, 100 mg QD, Day 1, Cohort 1 (Table 27), read-out: Tmax, median) was 2 h. It also gave a half-life (human, plasma, oral, 100 mg, plasma, 100 mg QD, Day 1, Cohort 1 (Table 27), read-out: t1/2, geometric mean (converted)) of 12.6 h, an AUC (human, plasma, oral, 100 mg, plasma, 100 mg QD, Day 1, average of five human patients (Example 10), read-out: AUC) of 2020 ng·h/mL and an AUC(0-t) (human, plasma, oral, 100 mg, plasma, 100 mg QD, Day 1, individual patients, read-out: AUClast) of 3490 ng·h/mL. For the same compound, the half-life (human, plasma, oral, 100 mg, plasma, 100 mg QD, Day 1, individual patients, read-out: t1/2 (converted)) was 15.1 h, the AUC (human, plasma, oral, 100 mg, plasma, 100 mg QD, Day 1 observed, mean of first two patients, read-out: AUC) was 3450 ng·h/mL and the Cmax (human, plasma, oral, 100 mg, plasma, 100 mg QD, Day 1 observed, mean of first two patients, read-out: Cmax) was 196 ng/mL. It also gave a concentration at 1 day (human, plasma, oral, 100 mg, plasma, 100 mg QD, Day 1 observed, mean of first two patients, read-out: Cmin) of 103 ng/mL, a concentration at 1 day (human, plasma, oral, 100 mg, plasma, 100 mg QD, Day 1 observed, mean of first two patients, read-out: Cmin^free) of 5.4 ng/mL and an AUC (human, plasma, oral, 100 mg, plasma, 100 mg QD, Day 15 (Example 10), read-out: AUC) of 3290 ng·h/mL. The Cmax (human, plasma, oral, 100 mg, plasma, 100 mg QD, Day 15 (Example 10), read-out: Cmax) was 211 ng/mL, the AUC(0-t) (human, plasma, oral, 100 mg, plasma, 100 mg QD, Day 15, individual patients, read-out: AUClast) was 7240 ng·h/mL and the Cmax (human, plasma, oral, 100 mg, plasma, 100 mg QD, Day 15, individual patients, read-out: Cmax) was 457 ng/mL. The half-life (human, plasma, oral, 100 mg, plasma, 100 mg QD, Day 15, individual patients, read-out: t1/2 (converted)) was 17 h, the AUC (human, plasma, oral, 100 mg, plasma, 100 mg QD, Day 15 observed, mean of first two patients, read-out: AUC) was 6580 ng·h/mL and the Cmax (human, plasma, oral, 100 mg, plasma, 100 mg QD, Day 15 observed, mean of first two patients, read-out: Cmax) was 408 ng/mL. It also gave a concentration at 15 day (human, plasma, oral, 100 mg, plasma, 100 mg QD, Day 15 observed, mean of first two patients, read-out: Cmin) of 177 ng/mL.
